The target in series [1] is T1, HIV-1 integrase (Human immunodeficiency virus type 1 group M subtype B, UniProt P04585).
T1 construct: 100 μl IN enzyme solution was added to each well; purchased XpressBio, Frederick, MD
Briefly: 3'-processing inhibition assay (modified strand transfer assay, inhibitor pre-incubated with IN). The format is biochemical. As to conditions: 20 nM IN pre-incubated 30 min.
Protocol: To confirm the 3′-processing inhibition activity NCINI, the strand transfer inhibition assay was modified. The plate coating process with DS DNA was conducted in a similar manner. […] Reaction of integrase first with the drug before its reaction with DS DNA is a necessary step to validate the 3′-processing inhibitory activity of the compound. The integrase-inhibitor mixture was added to LTR DS DNA-conjugated 96-well plates. Subsequent steps were conducted in a similar manner as the strand transfer assay.
The subsequent steps were the same as the strand transfer assay protocol (Fig. 4a).
The 3′-processing inhibition assay was performed by modifying the protocol of the strand transfer assay. […] Before addition of LTR dsDNA, fivefold serially diluted integrase inhibitors were incubated with 20 nM integrase for 30 min. The integrase-inhibitor mixtures were treated with LTR dsDNA-conjugated 96-well plates. After incubation, target DNA was added to each well for the strand transfer reaction and the products detected colorimetrically using a HRP-labeled antibody against 3′-modified target DNA. "No integrase" and "integrase-only" wells were set as the negative and positive control, respectively

The test system of series [2] is HIV-1 AD8 strain. Briefly: Antiviral activity test using the TZM-bl cell luciferase system. To be noted: for EC50: Human immunodeficiency virus 1, TZM-bl, 48 h. The protocol: TZM-bl cells were seeded on 96-well cell culture plates at a density of 1 × 10^4 cells/well and cultured overnight. Each drug was twofold serially diluted from 10,000 to 0.15 nM and treated to cells. After a 30 min incubation period, viral infection was performed with 500 TCID50 of HIV-1 AD8. Cells were cultured for 48 h after infection and luciferase activity measured using Beetle-Lysis Juice (PJK GmbH, Kleinblittersdorf, Germany) according to the manufacturer’s instructions. Briefly, the medium was removed, and cells washed three times with 200 μl PBS. Next, 100 μl Beetle-Lysis Juice containing luciferin and ATP were added to each well and incubated for 5 min with protection from sunlight. Subsequently, luciferase activity was measured using a micro beta counter (PerkinElmer, Waltham, MA) after transferring solutions to a white 96-well plate. Anti-HIV efficacy of drugs was determined based on reduced expression of luciferase relative to the virus-only treatment group.
Fig.1 Determination of antiviral activities of integrase inhibitors in the TZM-bl cell line system. Integrase inhibitors were serially diluted and incubated with 1 × 10^4 TZM-bl cells per well during 30 min, followed by infection with 500 TCID50 of HIV-1 AD8 strain. For determination of antiviral efficacy, luciferase activity was measured after 48 h of incubation. Cell culture media of non-infected and infected cells without HIV drug treatment were set as the negative and positive control, respectively.

The test system of series [3] is HIV-1 AD8 strain. Nature of the series: p24 ELISA antiviral activity in infected MT2 cells. As to conditions: for EC50: Human immunodeficiency virus 1, MT2, 120 h; for SI value (CC50/EC50): MT2 cell system. The procedure: ELISA was conducted to detect HIV-1 p24 for assessment of antiviral activity using a HIV-1 p24 ELISA kit (XpressBio, Frederick, MD). To this end, MT2 cells seeded on a 96-well cell culture plate at a density of a 1 × 10^4 cells/well were infected with 500 TCID50 of HIV-1 AD8 strain. Each drug was serially diluted threefold (from 10,000 to 0.51 nM) for treatment of cells. After five days of culture at 37 °C with 5% CO2, 100 μl of culture medium was harvested and supernatant obtained by centrifugation for 5 min at 5000 rpm (8400 rcf), with storage at − 80 °C. Cell culture media of non-infected and infected cells without INI treatment were set as the negative and positive control, respectively. The ELISA procedure was conducted according to the manufacturer’s instructions. Briefly, samples were mixed with 20 μl lysis buffer, 200 μl aliquots pipetted into a microplate, and incubated for 1 h at 37 °C. After incubation, the contents of the wells were aspirated and microtitration plates washed six times with 350 μl wash buffer. Each well was treated with 100 μl detection antibody for 1 h at 37 °C, which was subsequently removed by washing under the same conditions. An aliquot (100 μl) of streptavidin-HRP conjugate was added into each well, followed by incubation at room temperature for 30 min. After washing under the same conditions, 100 μl substrate solution was immediately dispensed into each well and incubated for 30 min at room temperature with protection from direct sunlight. For termination of the reaction, 100 μl stop solution was added to each well and absorbance values at 450 nm immediately read using a microplate reader.
MT2 cells infected with 500 TCID50 of HIV-1 AD8 strain were treated with a range of concentrations of each drug. At 5 days post-infection, cell culture media were harvested for p24 ELISA. Media of non-infected and infected cells without HIV drug treatment were set as the negative or positive control, respectively.
(In general: ELISA stands for enzyme-linked immunosorbent assay.)

Series [4] deals with HxB2, NL4.3 and a recombinant NL4.3 strain. To be noted: against HxB2, NL4.3 and a recombinant NL4.3 strain; cited from earlier work.
The target of series [5] is T1, HIV-1 integrase. Nature of the series: Strand transfer inhibition assay (HIV-1 integrase assay kit). The format is biochemical. To be noted: read-out: strand transfer inhibitory activity. The procedure: The strand transfer assay was performed using the HIV-1 integrase assay kit (XpressBio, Frederick, MD) according to the manufacturer’s instructions. Briefly, 100 μl of 1X donor substrate DNA (DS DNA) solution was added to each well and incubated for 30 min at 37 °C. The liquid was aspirated from the wells and washed 5 times with 300 μl wash buffer, followed by incubation with 200 μl blocking buffer per well for 30 min at 37 °C. Following aspiration of the liquid, wells were washed three times with 200 μl reaction buffer. Next, 100 μl IN enzyme solution was added to each well and incubated under similar conditions followed by removal of liquid and three washes with 200 μl reaction buffer. Each test sample was fivefold serially diluted (from 1000 to 8 μM) in reaction buffer and 50 μl aliquots added per well. After 5 min incubation at room temperature, 50 μl 1X target substrate DNA (TS DNA) solution was directly added to the 50 μl test sample within the wells. Reactions were mixed by tapping the plate gently 3–5 times and incubating for 30 min at 37 °C, washed 5 times with 300 μl wash solution and incubated with 100 μl HRP antibody for 30 min at 37 °C. After washing the plate under the same conditions, 100 μl TMB peroxidase substrate solution was added per well and incubated for 10 min at room temperature. To terminate the reaction, 100 μl TMB stop solution was directly added to wells and absorbance read using a plate reader at 450 nm.
Fig.3 Strand transfer inhibition efficiency of catalytic and non-catalytic integrase inhibitors. a Schematic diagram of the strand transfer assay process. The yellow and blue boxes represent the response under conditions of no IN inhibitor or INSTI, respectively. b Integrase inhibitor compounds at a range of concentrations generated from fivefold serial dilutions were used to treat 3′-end cleaved LTR DS DNA by integrase. After incubation, TS DNA was added to each well for the strand transfer reaction. The reaction products were detected colorimetrically using a HRP-labeled antibody against modified target DNA. "No integrase" and "Integrase only" wells were set as the negative and positive control, respectively

A short description of series [6]: Cell cytotoxicity by WST method (EZ-Cytox) in TZM-bl cells. The class given is cell-based. To be noted: human, 2 days incubation. The protocol: (§1) To determine the cytotoxicity of anti-HIV drugs, cell viability was assessed via the water-soluble tetrazolium salt (WST) method using an EZ-Cytox kit (Daeil Lab Service, Seoul, Korea) according to the manufacturer’s instructions. […] Cells were treated with serial dilutions of each drug ([…] dilutions from 50,000 to 2.54 nM). On days 2 and 5 of incubation, 10 μl EZ-Cytox solution was added to each well and incubated for 2 h, followed by spectrophotometric measurement of absorbance at 540 nm.

The target of series [7] is integrase strand transfer. To be noted: does not inhibit strand transfer; cited from earlier work.
The nature of series [8]: Cell cytotoxicity by WST method (EZ-Cytox) in MT2 cells. The format is cell-based. As to conditions: human, 5 days incubation. The protocol: as §1

One may read the EC50 as the concentration giving half of the maximal effect. A word on the CC50: it is the concentration that lowers cell viability or growth by half. Lower therefore signals harm at low concentration. `Cc1nc2ccccc2c(-c2ccc3c4c(ccnc24)CCO3)c1[C@H](OC(C)(C)C)C(=O)O` [BI 224436]: the figures for the “IN inhibition activity (3'-processing, modified protocol)” value at HIV-1 integrase [1] (at 3.2 μM) and at HIV-1 integrase [1] (at 2000 μM) were 80.65% and 87.14%, respectively. Besides, the EC50 is 566 nM with HIV-1 AD8 strain [2], 28.7 nM in the series with HIV-1 AD8 strain [3], 11 to 27 nM in series [4] and > 50000 nM in series [7]. For the same compound, on HIV-1 integrase [5], the inhibition at 8 µM was 20%. Besides, at HIV-1 integrase [5] (at 1000 μM), the inhibition at 1000 µM was 36%. For the same compound, the CC50 at 2 days in series [6] is > 50000 nM. In addition, in series [8], the CC50 at 5 days was > 50000 nM.

For `C[C@@H]1CCO[C@H]2Cn3cc(C(=O)NCc4ccc(F)cc4F)c(=O)c(O)c3C(=O)N12` [DTG, Dolutegravir], the EC50 in the series with HIV-1 AD8 strain [2] stood at 1.6 nM. For the same compound, in the series with HIV-1 AD8 strain [3], the EC50 was < 0.51 nM and the “SI value (CC50/EC50)” value is on record as > 3413.60. On HIV-1 integrase [5], the inhibition at 8 µM is > 50%. In addition, the half-maximal cytotoxic concentration (CC50) at 2 days in series [6] is > 50000 nM. The compound further registered a CC50 at 5 days in series [8] of 1740 nM.

Consider `COc1cc2c(cc1Cc1cccc(Cl)c1F)c(=O)c(C(=O)O)cn2[C@H](CO)C(C)C` [EVG, Elvitegravir], for which the EC50 was < 0.15 nM with HIV-1 AD8 strain [2] and < 0.51 nM with HIV-1 AD8 strain [3]. In series [6], the CC50 at 2 days was found to be 26000 nM. In series [8], this compound returned a CC50 at 5 days of 1260 nM.

Take `Cc1nnc(C(=O)NC(C)(C)c2nc(C(=O)NCc3ccc(F)cc3)c(O)c(=O)n2C)o1` [RAL, Raltegravir]: the half-maximal effective concentration (EC50) with HIV-1 AD8 strain [2] turned out to be 10.4 nM; with HIV-1 AD8 strain [3], 0.58 nM. Further, the “SI value (CC50/EC50)” value is > 4816.96 with HIV-1 AD8 strain [2] (TZM-bl cell system) and 11,075.19 in the series on HIV-1 AD8 strain [3]. Also, the inhibition at 8 µM at HIV-1 integrase [5] is > 50%. For the same compound, the CC50 at 2 days in series [6] was > 50000 nM. The CC50 at 5 days in series [8] was 6420 nM.

These data come from article PMC7805210, “Study on suitable analysis method for HIV-1 non-catalytic integrase inhibitor” (Virology Journal, 2021).
